One assay deals with T1, NdmB-His6 (Pseudomonas putida, UniProt H9N290).
T1 construct: made in house; host or cells: E. coli BL21(DE3)
T1 sequence (H9N290 1-355): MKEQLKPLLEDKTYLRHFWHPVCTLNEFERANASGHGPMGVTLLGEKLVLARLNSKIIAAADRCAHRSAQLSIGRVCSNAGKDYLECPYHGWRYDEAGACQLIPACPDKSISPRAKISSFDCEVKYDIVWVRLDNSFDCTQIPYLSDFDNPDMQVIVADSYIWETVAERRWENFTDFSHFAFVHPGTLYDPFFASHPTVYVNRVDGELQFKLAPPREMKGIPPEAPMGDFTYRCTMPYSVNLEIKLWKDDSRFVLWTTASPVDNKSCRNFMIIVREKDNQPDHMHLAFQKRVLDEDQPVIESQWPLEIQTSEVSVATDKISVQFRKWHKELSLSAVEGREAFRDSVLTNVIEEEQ
As to the kind of experiment: Methylxanthine N-demethylase assay and kinetics, NdmB-His6 with His6-NdmD. It is filed as biochemical, Pseudomonas putida CBB5. The settings on record: NdmB-His6. As to the method:
Methylxanthine N-demethylase activity assay contained, in 1-ml total volume, 0.5 mM methylxanthine, 1 mM NADH, 50 μM Fe(NH4)2(SO4)2, and an appropriate amount of NdmA-His6 or NdmB-His6 (7.4 μg-2.5 mg protein depending on substrate specificity) in 50 mM KPi buffer (pH 7.5). Approximately 4 U of partially purified reductase, prepared as described previously (Summers et al., 2011) or 59 U of purified His6-NdmD was added to reaction mixture. Catalase from bovine liver (4,000 U) was also added to reactions containing His6-NdmD. The reaction mixture was incubated at 30° C. with 300 rpm shaking on an incubating microplate shaker (VWR, Radnor, Pa.). Periodically, a small aliquot was sampled from the reaction mixture and mixed with equal volume of acetonitrile for quantifying concentrations of methylxanthines and N-demethylated products by HPLC. One unit of N-demethylase activity was defined as the consumption of one […] methylxanthine per minute.
Apparent kinetic parameters of NdmA-His6 and NdmB-His6 were determined by measuring the initial rate of disappearance (vo) of methylxanthines in 50 mM KPi buffer (pH 7.5) at 30° C. The initial substrate concentrations (ESI) used in these experiments were from 25 to 500 μM. Substrates were incubated with His6-NdmD plus either NdmA-His6 or NdmB-His6 under standard conditions for 15 minutes. At 1, 5, 10, and 15 minutes, samples were removed from the reaction mixtures to quantitate substrate concentrations by HPLC. Plots of substrate concentrations against time were used to determine the initial rates of disappearance of substrates which were linear over 15 minutes. The apparent kinetic parameters were determined from Michaelis-Menten plots of vo against [S] fitted with the equation

Assay [1] deals with T2, Caffeine dehydrogenase (Cdh) from CBB1 (Pseudomonas sp., UniProt D7REY3).
T2 sequence (D7REY3 1-791): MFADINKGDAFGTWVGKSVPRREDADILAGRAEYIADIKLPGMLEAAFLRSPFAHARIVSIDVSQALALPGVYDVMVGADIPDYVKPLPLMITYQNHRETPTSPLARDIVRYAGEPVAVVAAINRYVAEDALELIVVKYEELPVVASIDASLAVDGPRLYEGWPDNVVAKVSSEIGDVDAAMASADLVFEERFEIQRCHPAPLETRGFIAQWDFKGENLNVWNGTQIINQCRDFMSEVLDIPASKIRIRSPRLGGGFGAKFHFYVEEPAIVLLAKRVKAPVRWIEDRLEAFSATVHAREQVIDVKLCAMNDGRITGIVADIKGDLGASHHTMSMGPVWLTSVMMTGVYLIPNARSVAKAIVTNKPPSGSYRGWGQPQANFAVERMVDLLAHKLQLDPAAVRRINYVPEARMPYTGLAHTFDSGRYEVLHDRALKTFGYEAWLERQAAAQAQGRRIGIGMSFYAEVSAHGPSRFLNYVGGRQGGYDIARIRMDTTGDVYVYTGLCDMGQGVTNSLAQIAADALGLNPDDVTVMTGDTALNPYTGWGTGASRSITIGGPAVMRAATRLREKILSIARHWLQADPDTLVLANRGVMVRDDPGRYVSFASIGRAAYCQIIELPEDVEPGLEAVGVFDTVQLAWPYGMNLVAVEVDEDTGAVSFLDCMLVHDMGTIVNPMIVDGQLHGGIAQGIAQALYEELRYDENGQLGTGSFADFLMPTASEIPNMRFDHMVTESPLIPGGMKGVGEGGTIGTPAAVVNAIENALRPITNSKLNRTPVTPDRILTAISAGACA
T2 sequence (D7REY4 1-295 partner): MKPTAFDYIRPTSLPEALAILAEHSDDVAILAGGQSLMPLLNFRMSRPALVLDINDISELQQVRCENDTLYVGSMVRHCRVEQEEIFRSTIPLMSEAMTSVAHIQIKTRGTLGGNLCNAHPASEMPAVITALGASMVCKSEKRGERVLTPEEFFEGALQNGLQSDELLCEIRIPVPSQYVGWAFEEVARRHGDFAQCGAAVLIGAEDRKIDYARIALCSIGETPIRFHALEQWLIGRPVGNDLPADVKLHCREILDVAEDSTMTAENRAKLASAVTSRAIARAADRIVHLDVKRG
T2 sequence (D7REY5 1-167 partner): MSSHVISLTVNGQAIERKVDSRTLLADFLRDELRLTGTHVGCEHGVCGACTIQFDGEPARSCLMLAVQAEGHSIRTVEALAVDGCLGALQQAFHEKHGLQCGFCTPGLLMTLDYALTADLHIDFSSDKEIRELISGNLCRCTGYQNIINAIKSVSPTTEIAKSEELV
Particulars: cited from earlier work.

SMILES strings stand for the structures.

Data on 1 compound can be found in US8951752B2, “N-demethyase genes and uses thereof” (priority 2011, dated 2015).

For the compound `Cn1cnc2c1c(=O)[nH]c(=O)n2C` [Theobromine, 3,7-dimethylxanthine], the Product at NdmB-His6 was 7-methylxanthine. Besides, in assay [1], the “preference as a substrate, times less than caffeine” value is recorded as 50 times.
